Values quoted from earlier work in patent US7923560B2, “Delivery of immune response modifier compounds” (3M Innovative Properties Company, priority 2003, dated 2011).

How the values were obtained:
TLR 7 = target: T1, TLR 7 (Homo sapiens, UniProt Q9NYK1)
T1 construct: expressed in transfected cells
T1 sequence (Q9NYK1 27-1049): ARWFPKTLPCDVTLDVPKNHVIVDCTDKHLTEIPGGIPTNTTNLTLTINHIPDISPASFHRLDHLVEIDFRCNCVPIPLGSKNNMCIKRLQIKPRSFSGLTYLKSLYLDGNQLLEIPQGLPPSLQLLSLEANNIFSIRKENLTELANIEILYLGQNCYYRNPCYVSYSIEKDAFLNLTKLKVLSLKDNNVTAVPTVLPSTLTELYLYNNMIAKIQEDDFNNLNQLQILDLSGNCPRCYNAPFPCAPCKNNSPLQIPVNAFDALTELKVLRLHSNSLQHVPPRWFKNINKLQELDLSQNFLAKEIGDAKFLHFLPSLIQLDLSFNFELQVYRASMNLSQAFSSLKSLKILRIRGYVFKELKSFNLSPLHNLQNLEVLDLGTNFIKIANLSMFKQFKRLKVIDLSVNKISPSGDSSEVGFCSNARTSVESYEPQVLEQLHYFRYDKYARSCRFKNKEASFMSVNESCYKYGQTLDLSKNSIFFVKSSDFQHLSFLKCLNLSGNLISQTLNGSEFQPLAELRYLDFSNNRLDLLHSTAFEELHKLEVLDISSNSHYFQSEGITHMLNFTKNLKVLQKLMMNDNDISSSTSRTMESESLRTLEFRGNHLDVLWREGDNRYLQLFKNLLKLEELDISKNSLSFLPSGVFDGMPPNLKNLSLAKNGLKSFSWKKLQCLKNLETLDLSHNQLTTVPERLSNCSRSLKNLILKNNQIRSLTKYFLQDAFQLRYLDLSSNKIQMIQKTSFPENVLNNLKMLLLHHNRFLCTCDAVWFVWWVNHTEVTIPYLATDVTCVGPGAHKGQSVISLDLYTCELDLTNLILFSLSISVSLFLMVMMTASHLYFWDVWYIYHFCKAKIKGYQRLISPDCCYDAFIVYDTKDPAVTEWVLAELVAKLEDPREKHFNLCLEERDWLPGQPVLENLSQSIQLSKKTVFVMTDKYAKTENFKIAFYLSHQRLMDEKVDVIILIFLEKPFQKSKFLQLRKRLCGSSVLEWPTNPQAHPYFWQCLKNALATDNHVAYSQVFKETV

TLR 8 = target: T2, TLR 8 (Homo sapiens, UniProt Q9NR97)
T2 construct: expressed in transfected cells
T2 sequence (Q9NR97 27-1041): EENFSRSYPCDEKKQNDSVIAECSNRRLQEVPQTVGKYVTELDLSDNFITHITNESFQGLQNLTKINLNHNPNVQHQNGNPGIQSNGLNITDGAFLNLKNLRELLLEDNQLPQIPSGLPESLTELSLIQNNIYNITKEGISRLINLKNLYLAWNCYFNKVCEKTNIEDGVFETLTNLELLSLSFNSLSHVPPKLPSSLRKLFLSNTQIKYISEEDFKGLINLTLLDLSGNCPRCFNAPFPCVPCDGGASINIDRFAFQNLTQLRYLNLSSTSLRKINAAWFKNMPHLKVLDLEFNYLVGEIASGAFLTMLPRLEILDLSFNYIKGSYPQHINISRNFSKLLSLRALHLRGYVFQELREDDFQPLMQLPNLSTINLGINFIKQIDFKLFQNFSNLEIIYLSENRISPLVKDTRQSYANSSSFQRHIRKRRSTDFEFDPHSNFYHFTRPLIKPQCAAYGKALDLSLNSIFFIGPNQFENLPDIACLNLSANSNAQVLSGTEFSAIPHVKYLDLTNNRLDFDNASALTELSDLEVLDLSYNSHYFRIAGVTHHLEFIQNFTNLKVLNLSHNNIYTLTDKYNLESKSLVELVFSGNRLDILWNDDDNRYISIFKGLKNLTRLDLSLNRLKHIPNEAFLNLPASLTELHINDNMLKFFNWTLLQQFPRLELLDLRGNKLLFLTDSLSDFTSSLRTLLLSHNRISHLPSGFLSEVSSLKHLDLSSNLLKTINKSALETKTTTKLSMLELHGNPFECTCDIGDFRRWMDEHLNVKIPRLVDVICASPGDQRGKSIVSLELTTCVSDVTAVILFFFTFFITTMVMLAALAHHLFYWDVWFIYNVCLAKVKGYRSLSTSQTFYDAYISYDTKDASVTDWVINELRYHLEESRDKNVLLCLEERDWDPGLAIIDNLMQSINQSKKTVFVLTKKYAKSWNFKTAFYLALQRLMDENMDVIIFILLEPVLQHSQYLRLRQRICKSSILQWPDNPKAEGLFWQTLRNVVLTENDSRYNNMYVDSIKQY

[1] = delivered systemically, compared to imiquimod

## CCOCc1nc2c(N)nc3c(c2n1CC(C)(C)O)CCCC3 [4-amino-2-(ethoxymethyl)-α,α-dimethyl-6,7,8,9-tetrahydro-1H-imidazo[4,5-c]quinoline-1-ethanol]
TLR 7
  TLR 7 agonist activity: a TLR 7 and TLR 8 agonist
TLR 8
  TLR 8 agonist activity: a TLR 7 and TLR 8 agonist

## CC(C)(O)Cn1cnc2c(N)nc3ccccc3c21 [4-amino-α,α-dimethyl-1H-imidazo[4,5-c]quinoline-1-ethanol]
TLR 7
  TLR 7 agonist activity: predominantly a TLR 7 agonist
TLR 8
  TLR 8 agonist activity: not a substantial TLR 8 agonist
[1]
  CNS effect: much lower CNS effect

## CCOCc1nc2c(N)nc3ccccc3c2n1CC(C)(C)O [Resiquimod, 4-amino-2-ethoxymethyl-α,α-dimethyl-1H-imidazo[4,5-c]quinoline-1-ethanol]
TLR 7
  TLR 7 agonist activity: combination TLR 7 and TLR 8 agonist
TLR 8
  TLR 8 agonist activity: combination TLR 7 and TLR 8 agonist
